Read-outs that look alike come from different tables or passages of the source.
Columns and labels:
[1] = test system: S. aureus (MRSA) biofilms; test: in vitro biofilm disruption assay, bacterial; assay type: cell-based; details: Staphylococcus aureus, 24 h
Experimental: In vitro biofilm formation was tested using two assays, sustained inhibition and disruption. Both assays assess biofilm formed on polystyrene plates. The first, tests the effects of amino acid solution on a developing biofilm, while the latter tests the effects of the solution on a pre-formed mature biofilm, both compared to media without supplemented amino acids.
(§1) Other amino acids in the blood of animals could combat bacterial and fungal biofilm and therefore may be useful in treating these bacterial and fungal infections that would lie on the external surfaces of infected animals such as humans and could also be used to combat these pathogens on instruments and surfaces that need to be treated. Two types of biofilm assays were performed: a sustained inhibition assay and a disruption assay. The sustained inhibition assay assessed the compound's ability to prevent biofilm development throughout all stages of biofilm formation, while the disruption assay assessed the compound's ability to break up an existing mature biofilm.
(§2) For fungal biofilm assays, all solutions were prepared in RPMI 1640 medium. All bacterial biofilm solutions were prepared in Tryptic Soy Broth (TSB), supplemented with 1% glucose (henceforth referred to as TSB-G). All subsequent procedures were performed in a manner that maintained sterility. A solution of each amino acid to be tested was prepared in weight to volume concentrations ranging from 0.1-5.0%. Amino acids were also tested in combinations. Compound solutions were homogenized with gentle agitation in the dark (4° C., 24 hours) before use.
Bacterial strains were streaked on Blood Agar plates (5% sheep blood in Tryptic Soy Agar) and incubated at 37° C. for 24 hours. A single colony from each strain to be tested was inoculated in a TSB broth and grown for 12 hours, at 37° C. shaking at 225 rpm. For the bacterial biofilm inhibition assays, 1 μL of saturated overnight cell culture was added to either 80 μL of TSB-G, or TSB-G supplemented with the amino acid compound solution to be tested, in a 384-well plate. The cells were allowed to adhere to the plate for 60 minutes at 37° C. without shaking. The media was carefully aspirated and 80 μL of TSB-G, or TSB-G supplemented with the amino acid compound solution was added to the plate. The plate was further incubated for 24 hours at 37° C. without shaking. Media was carefully aspirated and the biofilm was measured by optical density at 600 nm. Eight or twelve replicates were performed for each tested condition and the reported values are normalized to the control (TSB-G media only). For the bacterial biofilm disruption assays, 80 μL of TSB-G was added to the plate, along with 1 μL of overnight cell culture. The cells were allowed to adhere to the plate for 60 minutes at 37° C. with no shaking. The media was carefully aspirated and 80 μL of TSB-G was added to the plate. The plate was further incubated for 24 hours at 37° C. with no shaking. Media was carefully aspirated from the mature biofilm and 80 μL of TSB-G, or TSB-G supplemented with the amino acid to be tested, was gently added to the plate. The plate was further incubated for 24 hours at 37° C. without shaking. Media was aspirated and the biofilm was measured by optical density at 600 nm. Twelve replicates were performed for each tested condition and the reported values are normalized to the control (TSB-G media only).
For disruption assay, 80 μl of TSB-G was added to the plate, along with 1 μl of overnight cell culture. The cells were allowed to adhere to the plate for 60 minutes at 37° C. with no shaking. The media was carefully aspirated and 80 μl of TSB-G was added to the plate. The plate was further incubated for 24 hours at 37° C. with no shaking. Media was carefully aspirated from the mature biofilm and 80 μl of TSB-G, or TSB-G supplemented with the amino acid to be tested, was added drop wise to the plate. The plate was further incubated for 24 hours at 37° C. with no shaking. […]

[2] = test system: bacteria (S. aureus) biofilm and fungal (C. albicans) biofilm; test: disruption biofilm assay, bacterial and fungal taken together; assay type: cell-based, Staphylococcus aureus; Candida albicans
Experimental: as §1, §2
Fungal strains were streaked on Yeast Peptone Dextrose (YPD) agar plates and incubated at 30° C. for 48 hours. A single colony from each strain to be tested was inoculated into YPD broth and grown for 12 hours, at 30° C., shaking at 225 rpm. For the fungal biofilm inhibition assay, 1 μl of saturated overnight cell culture was added to either 80 μL of RPMI-1640 or RPMI-1640 supplemented with the amino acid compound solution to be tested, in a 384-well plate. […] Media was carefully aspirated and the biofilm was measured by optical density at 600 nm. […] Media was carefully aspirated and the biofilm was measured by optical density at 600 nm. […]
Bacterial strains were streaked on Blood Agar plates (5% sheep blood in Tryptic Soy Agar) and incubated at 37° C. for 24 hours. […] Media was carefully aspirated and the biofilm was measured by optical density at 600 nm. […]

[3] = disruption, S. aureus, 1% amino acid, p<0.001, read-out: Reduce B Biofilm
[4] = disruption, bacterial and fungal biofilm, 1% amino acid

Row | Structure (SMILES) | inhibition at 1 % [1, 3] [%] | Reduce Both [2, 4] | inhibition at 1 % ([1]; read-out: Reduce B Biofilm) [%] | Reduce Both [2]
1 | N[C@@H](CC(=O)O)C(=O)O [Aspartic Acid, L-aspartic acid] | > 30 | ●● (two dots [i.e. ●●] signifies major effect (greater than about 30% change)) | – | –
2 | N[C@@H](CS)C(=O)O [Cysteine, L-cysteine] | > 30 | ●● (two dots [i.e. ●●] signifies major effect (greater than about 30% change)) | – | –
3 | N[C@@H](CCC(=O)O)C(=O)O [Glutamic Acid, L-glutamic acid] | – | – | > 30 | ● (a single dot [i.e. ●] signifies minor effect (from about 10 to about 30% change))
